From publication PMC5224920, “Assessing the mechanism and therapeutic potential of modulators of the human Mediator complex-associated protein kinases” (eLife, 2016)

Tested on: 12 single or co-culture in vitro tissue models of primary cells
Assay: Culture/co-culture cell model panel, extracellular biomarkers (DiscoveRx); on CCL2/MCP-1: reference of the scale not given here; on CD141/Thrombomodulin: reference of the scale not given here; on CD142/Tissue Factor: reference of the scale not given here; on CXCL8/IL-8: reference of the scale not given here; on CXCL9/MIG: reference of the scale not given here; on M-CSF: reference of the scale not given here; on SRB: reference of the scale not given here
Assay type: cell-based, human
[1] = /HDFNo unstimulated fibroblasts, 1.00E0 nM
[2] = /HDFNo unstimulated fibroblasts, 1.00E1 nM
[3] = /HDFNo unstimulated fibroblasts, 1.00E2 nM
[4] = /HDFNo unstimulated fibroblasts, 1.00E3 nM
[5] = /HDFNo unstimulated fibroblasts, 1.00E4 nM

## Cn1ncc2cc(-c3cnc(N)c(Cl)c3N3CCC4(CCNC4=O)CC3)ccc21 [CMPD 3]
3C, 1.00E0 nM
  CCL2/MCP-1: 0.030
  CD54/ICAM-1: -0.007
  CD87/uPAR: -0.138
  CD106/VCAM-1: 0.033
  CD141/Thrombomodulin: 0.044
  CD142/Tissue Factor: 0.040
  CXCL8/IL-8: 0.00749
  CXCL9/MIG: 0.008
  HLA-DR: -0.007
  Proliferation: -0.065
  SRB: -0.049
3C, 1.00E1 nM
  CCL2/MCP-1: -0.022
  CD54/ICAM-1: -0.036
  CD87/uPAR: -0.247
  CD106/VCAM-1: 0.039
  CD141/Thrombomodulin: 0.072
  CD142/Tissue Factor: 0.133
  CXCL8/IL-8: -0.095
  CXCL9/MIG: -0.00373
  HLA-DR: -0.076
  Proliferation: -0.054
  SRB: -0.076
3C, 1.00E2 nM
  CCL2/MCP-1: -0.124
  CD54/ICAM-1: -0.048
  CD87/uPAR: -0.349
  CD106/VCAM-1: 0.034
  CD141/Thrombomodulin: 0.056
  CD142/Tissue Factor: 0.139
  CXCL8/IL-8: -0.180
  CXCL9/MIG: -0.007
  HLA-DR: -0.144
  Proliferation: -0.088
  SRB: -0.094
3C, 1.00E3 nM
  CCL2/MCP-1: -0.168
  CD54/ICAM-1: -0.045
  CD87/uPAR: -0.370
  CD106/VCAM-1: 0.037
  CD141/Thrombomodulin: 0.050
  CD142/Tissue Factor: 0.150
  CXCL8/IL-8: -0.301
  CXCL9/MIG: -0.026
  HLA-DR: -0.148
  Proliferation: -0.102
  SRB: -0.099
3C, 1.00E4 nM
  CCL2/MCP-1: -0.253
  CD54/ICAM-1: -0.033
  CD87/uPAR: -0.407
  CD106/VCAM-1: 0.036
  CD141/Thrombomodulin: 0.036
  CD142/Tissue Factor: 0.224
  CXCL8/IL-8: -0.302
  CXCL9/MIG: -0.020
  HLA-DR: -0.278
  Proliferation: -0.404
  SRB: -0.222
/HDF3CT, 1.00E0 nM
  CCL2/MCP-1: -0.010
  CD54/ICAM-1: -0.008
  CD106/VCAM-1: 0.026
  CXCL8/IL-8: -0.039
  CXCL9/MIG: 0.020
  CXCL10/IP-10: 0.003
  Collagen I: 0.036
  M-CSF: 0.008
  MMP-1: 0.097
  PAI-I: 0.039
  SRB: 0.007
  TIMP-2: 0.070
/HDF3CT, 1.00E1 nM
  CCL2/MCP-1: -0.048
  CD54/ICAM-1: -0.062
  CD106/VCAM-1: 0.0026
  CXCL8/IL-8: -0.028
  CXCL9/MIG: 0.010
  CXCL10/IP-10: 0.017
  Collagen I: 0.021
  M-CSF: -0.050
  MMP-1: 0.095
  PAI-I: -0.027
  SRB: -0.007
  TIMP-2: 0.045
/HDF3CT, 1.00E2 nM
  CCL2/MCP-1: -0.069
  CD54/ICAM-1: -0.067
  CD106/VCAM-1: 0.015
  CXCL8/IL-8: -0.099
  CXCL9/MIG: -0.022
  CXCL10/IP-10: 0.012
  Collagen I: 0.00367
  M-CSF: -0.024
  MMP-1: 0.086
  PAI-I: -0.074
  SRB: -0.023
  TIMP-2: 0.070
/HDF3CT, 1.00E3 nM
  CCL2/MCP-1: -0.111
  CD54/ICAM-1: -0.061
  CD106/VCAM-1: 0.021
  CXCL8/IL-8: -0.189
  CXCL9/MIG: -0.040
  CXCL10/IP-10: 0.00333
  Collagen I: 0.027
  M-CSF: -0.00149
  MMP-1: 0.040
  PAI-I: -0.123
  SRB: 0.00334
  TIMP-2: 0.107
/HDF3CT, 1.00E4 nM
  CCL2/MCP-1: -0.053
  CD54/ICAM-1: -0.081
  CD106/VCAM-1: 0.009
  CXCL8/IL-8: -0.144
  CXCL9/MIG: -0.049
  CXCL10/IP-10: -0.00029
  Collagen I: 0.010
  M-CSF: -0.092
  MMP-1: 0.107
  PAI-I: -0.208
  SRB: -0.230
  TIMP-2: 0.271
[1]
  CXCL8/IL-8: 0.059
  CXCL9/MIG: 0.119
  CXCL10/IP-10: 0.034
  CXCL11/I-TAC: 0.074
  EGFR: 0.022
  M-CSF: 0.066
  MMP-1: 0.081
  PAI-I: 0.044
  Proliferation_72hr: -0.013
  SRB: 0.039
  TIMP-1: 0.047
  TIMP-2: 0.100
[2]
  CXCL8/IL-8: 0.037
  CXCL9/MIG: 0.058
  CXCL10/IP-10: 0.054
  CXCL11/I-TAC: -0.002
  EGFR: 0.009
  M-CSF: 0.048
  MMP-1: 0.040
  PAI-I: -0.042
  Proliferation_72hr: 0.000939
  SRB: 0.011
  TIMP-1: 0.040
  TIMP-2: 0.045
[3]
  CXCL8/IL-8: 0.041
  CXCL9/MIG: 0.091
  CXCL10/IP-10: 0.056
  CXCL11/I-TAC: -0.021
  EGFR: 0.019
  M-CSF: 0.020
  MMP-1: 0.030
  PAI-I: -0.011
  Proliferation_72hr: 0.020
  SRB: -0.014
  TIMP-1: -0.015
  TIMP-2: 0.091
[4]
  CXCL8/IL-8: 0.013
  CXCL9/MIG: 0.053
  CXCL10/IP-10: 0.0016
  CXCL11/I-TAC: -0.010
  EGFR: 0.012
  M-CSF: -0.000464
  MMP-1: 0.050
  PAI-I: -0.034
  Proliferation_72hr: 0.048
  SRB: -0.021
  TIMP-1: 0.010
  TIMP-2: 0.080
[5]
  CXCL8/IL-8: 0.011
  CXCL9/MIG: -0.074
  CXCL10/IP-10: -0.076
  CXCL11/I-TAC: 0.023
  EGFR: 0.045
  M-CSF: 0.010
  MMP-1: 0.054
  PAI-I: -0.028
  Proliferation_72hr: 0.002
  SRB: -0.00187
  TIMP-1: -0.007
  TIMP-2: 0.202
/HDFNo, 1.00E0 nM
  CCL2/MCP-1: 0.028
  CD54/ICAM-1: 0.066
  CD106/VCAM-1: 0.114
  Collagen I: 0.082
  Collagen III: 0.065
/HDFNo, 1.00E1 nM
  CCL2/MCP-1: 0.027
  CD54/ICAM-1: 0.074
  CD106/VCAM-1: 0.048
  Collagen I: 0.041
  Collagen III: 0.032
/HDFNo, 1.00E2 nM
  CCL2/MCP-1: 0.042
  CD54/ICAM-1: -0.013
  CD106/VCAM-1: 0.065
  Collagen I: 0.061
  Collagen III: 0.079
/HDFNo, 1.00E3 nM
  CCL2/MCP-1: 0.025
  CD54/ICAM-1: 0.014
  CD106/VCAM-1: 0.026
  Collagen I: 0.099
  Collagen III: 0.101
